Data published in PubChem BioAssay AID1919001 (Molecular Pharmacology Branch, DTP, NCI, 2023).
Values joined by “and” are separate entries in the source; they are usually repeats but may differ in a detail not shown here. Identical values can stand only once.

Tested on: 699152-130-R-J1-PDC complex spheroid growth
Test: Anticancer human tumor 699152-130-R-J1-PDC patient-derived pancreatic carcinoma cell line growth inhibition [AhR]
Conditions: for viability, T/C: stronger effect = lower value
Procedure, shortened: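 Spheroids combined tumor cells with HUVEC endothelial cells and human MSCs as stroma. AhR antagonists were paired with standard or investigational drugs, each dosed in half-log steps down from near clinical Cmax, or from 10 microM where Cmax was unknown.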

[1] = curve of first compound, second compound 0.1 µM
[2] = curve of first compound, second compound 0.316 µM
[3] = curve of first compound, second compound 1 µM
[4] = curve of first compound, second compound 3.16 µM
[5] = curve of first compound, second compound 10 µM
[6] = second compound 0.1 µM, first compound 0.000316 µM
[7] = second compound 0.1 µM, first compound 0.001 µM
[8] = second compound 0.1 µM, first compound 0.00316 µM
[9] = second compound 0.1 µM, first compound 0.01 µM
[10] = second compound 0.1 µM, first compound 0.0316 µM
[11] = second compound 0.1 µM, first compound 0.1 µM
[12] = second compound 0.316 µM, first compound 0.000316 µM
[13] = second compound 0.316 µM, first compound 0.001 µM
[14] = second compound 0.316 µM, first compound 0.00316 µM
[15] = second compound 0.316 µM, first compound 0.01 µM
[16] = second compound 0.316 µM, first compound 0.0316 µM
[17] = second compound 0.316 µM, first compound 0.1 µM
[18] = second compound 1 µM, first compound 0.000316 µM
[19] = second compound 1 µM, first compound 0.001 µM
[20] = second compound 1 µM, first compound 0.00316 µM
[21] = second compound 1 µM, first compound 0.01 µM
[22] = second compound 1 µM, first compound 0.0316 µM
[23] = second compound 1 µM, first compound 0.1 µM
[24] = second compound 3.16 µM, first compound 0.000316 µM
[25] = second compound 3.16 µM, first compound 0.001 µM
[26] = second compound 3.16 µM, first compound 0.00316 µM
[27] = second compound 3.16 µM, first compound 0.01 µM
[28] = second compound 3.16 µM, first compound 0.0316 µM
[29] = second compound 3.16 µM, first compound 0.1 µM
[30] = second compound 10 µM, first compound 0.000316 µM
[31] = second compound 10 µM, first compound 0.001 µM
[32] = second compound 10 µM, first compound 0.00316 µM
[33] = second compound 10 µM, first compound 0.01 µM
[34] = second compound 10 µM, first compound 0.0316 µM
[35] = second compound 10 µM, first compound 0.1 µM
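Further: compound exposure lasted 7 days after spheroids had grown for 3 days.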

Q: Which results are given for `Nc1ncn(C2CC(O)C(CO)S2)c(=O)n1` (stereo not drawn)?
A: viability, T/C (compound 0.000949 µM): 98% and 103% and 102%; viability, T/C (compound 0.003 µM): 105% and 110% and 111%; viability, T/C (compound 0.00949 µM): 97% and 102% and 112%; viability, T/C (compound 0.03 µM): 99.5% and 104% and 110%; viability, T/C (compound 0.0949 µM): 110% and 101% and 95.2%; viability, T/C (compound 0.3 µM): 111% and 96.2% and 102%; IC50 (curve of compound): > 300 nM

Q: With `CC[C@@]1(O)C(=O)OCc2c1cc1n(c2=O)Cc2cc3c(CN(C)C)c(O)ccc3nc2-1` + Cc1ccccc1N=Nc1ccc(NC(=O)c2ccnn2C)c(C)c1 as the compound, how does the IC50 [1] read?
A: > 100 nM

Q: What about the IC50 [2] of the same compound?
A: 75 nM

Q: And the IC50 [3]?
A: > 100 nM

Q: And the IC50 [4]?
A: > 100 nM

Q: What about the IC50 [5] of the same compound?
A: > 100 nM

Q: What about the viability, T/C [6] of the same compound?
A: 95.9%

Q: And the viability, T/C [7]?
A: 99%

Q: And the viability, T/C [8]?
A: 101%

Q: What about the viability, T/C [9] of the same compound?
A: 82.7%

Q: And the viability, T/C [10]?
A: 68.8%

Q: What about the viability, T/C [11] of the same compound?
A: 55.1%

Q: What about the viability, T/C [12] of the same compound?
A: 97.9%

Q: And the viability, T/C [13]?
A: 94%

Q: What about the viability, T/C [14] of the same compound?
A: 99.6%

Q: And the viability, T/C [15]?
A: 80.1%

Q: And the viability, T/C [16]?
A: 63.5%

Q: What about the viability, T/C [17] of the same compound?
A: 45.5%

Q: And the viability, T/C [18]?
A: 94.2%

Q: And the viability, T/C [19]?
A: 98.1%

Q: What about the viability, T/C [20] of the same compound?
A: 94.2%

Q: What about the viability, T/C [21] of the same compound?
A: 77.9%

Q: What about the viability, T/C [22] of the same compound?
A: 60.5%

Q: And the viability, T/C [23]?
A: 50.6%

Q: What about the viability, T/C [24] of the same compound?
A: 96.2%

Q: What about the viability, T/C [25] of the same compound?
A: 105%

Q: And the viability, T/C [26]?
A: 92.9%

Q: And the viability, T/C [27]?
A: 86.5%

Q: What about the viability, T/C [28] of the same compound?
A: 60.9%

Q: What about the viability, T/C [29] of the same compound?
A: 54.3%

Q: And the viability, T/C [30]?
A: 107%

Q: And the viability, T/C [31]?
A: 117%

Q: And the viability, T/C [32]?
A: 86.6%

Q: And the viability, T/C [33]?
A: 82.7%

Q: What about the viability, T/C [34] of the same compound?
A: 70%

Q: What about the viability, T/C [35] of the same compound?
A: 50.8%

Q: How did the IC50 [1] turn out when `Cn1ncnc1C1c2n[nH]c(=O)c3cc(F)cc(c23)NC1c1ccc(F)cc1` (stereo not drawn) + Cc1ccccc1N=Nc1ccc(NC(=O)c2ccnn2C)c(C)c1 was run?
A: > 100 nM

Q: What about the IC50 [2] of the same compound?
A: > 100 nM

Q: What about the IC50 [3] of the same compound?
A: > 100 nM

Q: What about the IC50 [4] of the same compound?
A: > 100 nM

Q: And the IC50 [5]?
A: > 100 nM

Q: And the viability, T/C [6]?
A: 83.7%

Q: What about the viability, T/C [7] of the same compound?
A: 101%

Q: And the viability, T/C [8]?
A: 101%

Q: What about the viability, T/C [9] of the same compound?
A: 87%

Q: What about the viability, T/C [10] of the same compound?
A: 99.2%

Q: What about the viability, T/C [11] of the same compound?
A: 100%

Q: And the viability, T/C [12]?
A: 102%

Q: What about the viability, T/C [13] of the same compound?
A: 96.5%

Q: And the viability, T/C [14]?
A: 97.8%

Q: And the viability, T/C [15]?
A: 88.8%

Q: And the viability, T/C [16]?
A: 92.4%

Q: And the viability, T/C [17]?
A: 80.1%

Q: What about the viability, T/C [18] of the same compound?
A: 107%

Q: What about the viability, T/C [19] of the same compound?
A: 87%

Q: And the viability, T/C [20]?
A: 94%

Q: What about the viability, T/C [21] of the same compound?
A: 98.4%

Q: And the viability, T/C [22]?
A: 95.5%

Q: What about the viability, T/C [23] of the same compound?
A: 83.2%

Q: What about the viability, T/C [24] of the same compound?
A: 97.5%

Q: And the viability, T/C [25]?
A: 117%

Q: What about the viability, T/C [26] of the same compound?
A: 112%

Q: And the viability, T/C [27]?
A: 100%

Q: And the viability, T/C [28]?
A: 90.5%

Q: What about the viability, T/C [29] of the same compound?
A: 99%

Q: What about the viability, T/C [30] of the same compound?
A: 113%

Q: What about the viability, T/C [31] of the same compound?
A: 112%

Q: What about the viability, T/C [32] of the same compound?
A: 118%

Q: And the viability, T/C [33]?
A: 122%

Q: What about the viability, T/C [34] of the same compound?
A: 108%

Q: What about the viability, T/C [35] of the same compound?
A: 105%

Q: `CCN(c1cc(-c2ccc(CN3CCOCC3)cc2)cc(C(=O)NCc2c(C)cc(C)[nH]c2=O)c1C)C1CCOCC1` was tested. Which viability, T/C (compound 0.00949 µM) did it give?
A: 101% and 104% and 103%

Q: What about the viability, T/C (compound 0.03 µM) of the same compound?
A: 95.7% and 110% and 98.5%

Q: What about the viability, T/C (compound 0.0949 µM) of the same compound?
A: 111% and 87.2% and 115%

Q: What about the viability, T/C (compound 0.3 µM) of the same compound?
A: 93.7% and 115% and 95%

Q: And the viability, T/C (compound 0.949 µM)?
A: 107% and 114% and 113%

Q: What about the viability, T/C (compound 3 µM) of the same compound?
A: 105% and 111% and 113%

Q: And the IC50 (curve of compound)?
A: > 3000 nM

Q: `CC[C@@]1(O)C(=O)OCc2c1cc1n(c2=O)Cc2cc3c(CN(C)C)c(O)ccc3nc2-1` was tested. Which viability, T/C (compound 0.000316 µM) did it give?
A: 103% and 108% and 86.6%

Q: What about the viability, T/C (compound 0.001 µM) of the same compound?
A: 91.2% and 96.4% and 99%

Q: What about the viability, T/C (compound 0.00316 µM) of the same compound?
A: 104% and 102% and 90%

Q: And the viability, T/C (compound 0.01 µM)?
A: 103% (2×) and 83.5%

Q: And the viability, T/C (compound 0.0316 µM)?
A: 90.8% and 91.3% and 70%

Q: What about the viability, T/C (compound 0.1 µM) of the same compound?
A: 62.8% and 70.9% and 53.5%

Q: What about the IC50 (curve of compound) of the same compound?
A: > 100 nM

Q: `Nc1ccccc1NC(=O)c1ccc(CNC(=O)OCc2cccnc2)cc1` was tested. Which viability, T/C (compound 0.0316 µM) did it give?
A: 91.4% and 87.2% and 106%

Q: What about the viability, T/C (compound 0.1 µM) of the same compound?
A: 96.6% and 89.1% and 109%

Q: What about the viability, T/C (compound 0.316 µM) of the same compound?
A: 96.1% and 93.6% and 116%

Q: What about the viability, T/C (compound 1 µM) of the same compound?
A: 97.1% and 103% and 95%

Q: What about the viability, T/C (compound 3.16 µM) of the same compound?
A: 76.1% and 86% and 93.4%

Q: And the viability, T/C (compound 10 µM)?
A: 39.1% and 38.4% and 42.8%

Q: What about the IC50 (curve of compound) of the same compound?
A: 7130 nM and 7650 nM and 8490 nM
